We go through five compounds from ChEMBL document CHEMBL1146922, “A novel ketone derivative of artemisinin biotransformed by Streptomyces griseus ATCC 13273” (Bioorg Med Chem Lett, 2006).

≈ marks a conversion by molar mass, not a printed value.

Usually IC50 stands for the point on the concentration scale where inhibition reaches its midpoint.

This assay deals with Plasmodium falciparum. Kind of assay: Antimicrobial activity against Plasmodium falciparum FCC1/HN. Type of assay: functional, organism-based.
Where [1] appears, read: Plasmodium falciparum, FCC1/HN, read-out: IC50.

For `C[C@@H]1[C@@H](O)C[C@H]2[C@@H](C)C(=O)O[C@@H]3O[C@]4(C)CC[C@@H]1C32OO4`, the IC50 under setting [1] is 0.0293 µg/mL (≈ 0.0982 µM).
Take `C[C@@H]1[C@H](O)C[C@H]2[C@@H](C)C(=O)O[C@@H]3O[C@]4(C)CC[C@@H]1C32OO4`: the IC50 under setting [1] amounted to 0.0346 µg/mL (≈ 0.116 µM).
Same read-out and setting: for `C[C@@H]1C(=O)C[C@H]2[C@@H](C)C(=O)O[C@@H]3O[C@]4(C)CC[C@@H]1C32OO4` the value was 0.0257 µg/mL (≈ 0.0867 µM).
As to `C[C@@H]1CC[C@H]2[C@@H](C)C(=O)O[C@@H]3O[C@@]4(C)OC32[C@H]1C[C@H]4O`, the IC50 entry is given as “Not Active”.
As to `C[C@@H]1CC[C@H]2[C@@H](C)C(=O)O[C@@H]3O[C@@]4(C)CC[C@@H]1[C@]32OO4` [ARTEMISININ], the IC50 under setting [1] came out at 0.0031 µg/mL (≈ 0.011 µM).
